Assay results published in the supplement of paper PMC11451515.

System: NOMO1
Assay: cell viability relative to DMSO control; higher = less cytotoxic
Conditions: 48 h
How it was run: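 Three leukemia lines were tested: NOMO1 and SEM at 500 cells/well and P12-Ichikawa at 1000 cells/well. Each was adapted for at least four passages in each medium and seeded in 5 μl in 1536-well plates, and library compounds in DMSO were pin-dosed from 47 μM to 0.79 nM in 11 threefold steps. After 48 h at 37°C, CellTiter-Glo One luminescence was read. Viability is a percentage relative to DMSO wells on each plate, with cell-free wells as background.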

[1] = HPLM + 10% dialyzed FBS, 0.000781 µM
[2] = HPLM + 10% dialyzed FBS, 0.00234 µM
[3] = HPLM + 10% dialyzed FBS, 0.00702 µM
[4] = HPLM + 10% dialyzed FBS, 0.0211 µM
[5] = HPLM + 10% dialyzed FBS, 0.0632 µM
[6] = HPLM + 10% dialyzed FBS, 0.19 µM
[7] = HPLM + 10% dialyzed FBS, 0.569 µM
[8] = HPLM + 10% dialyzed FBS, 1.71 µM
[9] = HPLM + 10% dialyzed FBS, 5.12 µM
[10] = HPLM + 10% dialyzed FBS, 15.4 µM
[11] = HPLM + 10% dialyzed FBS, 46.1 µM
[12] = RPMI 5 mM glucose + 10% FBS, 0.000781 µM
[13] = RPMI 5 mM glucose + 10% FBS, 0.00234 µM
[14] = RPMI 5 mM glucose + 10% FBS, 0.00702 µM
[15] = RPMI 5 mM glucose + 10% FBS, 0.0211 µM
[16] = RPMI 5 mM glucose + 10% FBS, 0.0632 µM
[17] = RPMI 5 mM glucose + 10% FBS, 0.19 µM
[18] = RPMI 5 mM glucose + 10% FBS, 0.569 µM
[19] = RPMI 5 mM glucose + 10% FBS, 1.71 µM
[20] = RPMI 5 mM glucose + 10% FBS, 5.12 µM
[21] = RPMI 5 mM glucose + 10% FBS, 15.4 µM
[22] = RPMI 5 mM glucose + 10% FBS, 46.1 µM
[23] = RPMI 5 mM glucose + 10% dialyzed FBS, 0.000781 µM
[24] = RPMI 5 mM glucose + 10% dialyzed FBS, 0.00234 µM
[25] = RPMI 5 mM glucose + 10% dialyzed FBS, 0.00702 µM
[26] = RPMI 5 mM glucose + 10% dialyzed FBS, 0.0211 µM
[27] = RPMI 5 mM glucose + 10% dialyzed FBS, 0.0632 µM
[28] = RPMI 5 mM glucose + 10% dialyzed FBS, 0.19 µM
[29] = RPMI 5 mM glucose + 10% dialyzed FBS, 0.569 µM
[30] = RPMI 5 mM glucose + 10% dialyzed FBS, 1.71 µM
[31] = RPMI 5 mM glucose + 10% dialyzed FBS, 5.12 µM
[32] = RPMI 5 mM glucose + 10% dialyzed FBS, 15.4 µM
[33] = RPMI 5 mM glucose + 10% dialyzed FBS, 46.1 µM

Structure (SMILES): COc1ccccc1[C@H](c1cccc2ccccc12)[C@@](C)(C#N)C(=O)N1CCC(c2cccc(C(F)(F)F)c2)CC1
- cell viability [1]: 96.4%
- cell viability [2]: 109%
- cell viability [3]: 101%
- cell viability [4]: 104%
- cell viability [5]: 115%
- cell viability [6]: 102%
- cell viability [7]: 102%
- cell viability [8]: 93.7%
- cell viability [9]: 88.6%
- cell viability [10]: 64.3%
- cell viability [11]: 39.9%
- cell viability [12]: 102%
- cell viability [13]: 96%
- cell viability [14]: 101%
- cell viability [15]: 106%
- cell viability [16]: 99.6%
- cell viability [17]: 103%
- cell viability [18]: 99.7%
- cell viability [19]: 107%
- cell viability [20]: 97.6%
- cell viability [21]: 85.2%
- cell viability [22]: 60.3%
- cell viability [23]: 100%
- cell viability [24]: 98.9%
- cell viability [25]: 98.6%
- cell viability [26]: 99.3%
- cell viability [27]: 104%
- cell viability [28]: 99.9%
- cell viability [29]: 86.4%
- cell viability [30]: 86.5%
- cell viability [31]: 83.1%
- cell viability [32]: 67.3%
- cell viability [33]: 53.1%

Structure (SMILES): CC(=O)N(C)C1(c2ccccc2)CCN(CCC[C@]2(c3ccc(Cl)c(Cl)c3)CCCN(C(=O)c3ccccc3)C2)CC1
- cell viability [1]: 116%
- cell viability [2]: 124%
- cell viability [3]: 128%
- cell viability [4]: 117%
- cell viability [5]: 123%
- cell viability [6]: 104%
- cell viability [7]: 58.4%
- cell viability [8]: 25.1%
- cell viability [9]: 9.73%
- cell viability [10]: 10%
- cell viability [11]: 4.11%
- cell viability [12]: 106%
- cell viability [13]: 109%
- cell viability [14]: 122%
- cell viability [15]: 126%
- cell viability [16]: 128%
- cell viability [17]: 122%
- cell viability [18]: 111%
- cell viability [19]: 65.5%
- cell viability [20]: 15.3%
- cell viability [21]: 8.99%
- cell viability [22]: 5.76%
- cell viability [23]: 110%
- cell viability [24]: 112%
- cell viability [25]: 114%
- cell viability [26]: 115%
- cell viability [27]: 106%
- cell viability [28]: 115%
- cell viability [29]: 100%
- cell viability [30]: 60.3%
- cell viability [31]: 16.9%
- cell viability [32]: 10.3%
- cell viability [33]: 5.1%

Structure (SMILES): CC(C(C)N1CC(=O)NC(=O)C1)N1CC(=O)NC(=O)C1 (stereo not drawn)
- cell viability [23]: 110%
- cell viability [24]: 121%
- cell viability [25]: 139%
- cell viability [26]: 133%
- cell viability [27]: 127%
- cell viability [28]: 123%
- cell viability [29]: 139%
- cell viability [30]: 135%
- cell viability [31]: 130%
- cell viability [32]: 124%
- cell viability [33]: 106%

Structure (SMILES): C=CC(=O)Nc1cccc(Sc2nc(Nc3ccc(N4CCN(C)CC4)cc3)ncc2Cl)c1
- cell viability [1]: 102%
- cell viability [2]: 103%
- cell viability [3]: 101%
- cell viability [4]: 104%
- cell viability [5]: 110%
- cell viability [6]: 109%
- cell viability [7]: 127%
- cell viability [8]: 114%
- cell viability [9]: 117%
- cell viability [10]: 98.5%
- cell viability [11]: 24.9%
- cell viability [12]: 97.3%
- cell viability [13]: 104%
- cell viability [14]: 121%
- cell viability [15]: 104%
- cell viability [16]: 101%
- cell viability [17]: 120%
- cell viability [18]: 109%
- cell viability [19]: 116%
- cell viability [20]: 113%
- cell viability [21]: 119%
- cell viability [22]: 8.7%
- cell viability [23]: 95.4%
- cell viability [24]: 101%
- cell viability [25]: 97.1%
- cell viability [26]: 92.1%
- cell viability [27]: 112%
- cell viability [28]: 93%
- cell viability [29]: 98.2%
- cell viability [30]: 97.5%
- cell viability [31]: 107%
- cell viability [32]: 107%
- cell viability [33]: 11.6%

Structure (SMILES): NC(=O)c1cnccn1
- cell viability [1]: 105%
- cell viability [2]: 120%
- cell viability [3]: 147%
- cell viability [4]: 133%
- cell viability [5]: 140%
- cell viability [6]: 140%
- cell viability [7]: 143%
- cell viability [8]: 141%
- cell viability [9]: 145%
- cell viability [10]: 126%
- cell viability [11]: 148%

Structure (SMILES): CCCCCCNC(=O)N1\C=C(F)/C(=O)NC1=O
- cell viability [1]: 117%
- cell viability [2]: 136%
- cell viability [3]: 124%
- cell viability [4]: 127%
- cell viability [5]: 128%
- cell viability [6]: 137%
- cell viability [7]: 122%
- cell viability [8]: 124%
- cell viability [9]: 118%
- cell viability [10]: 94.6%
- cell viability [11]: 79.9%
- cell viability [12]: 111%
- cell viability [13]: 119%
- cell viability [14]: 136%
- cell viability [15]: 109%
- cell viability [16]: 109%
- cell viability [17]: 114%
- cell viability [18]: 129%
- cell viability [19]: 127%
- cell viability [20]: 122%
- cell viability [21]: 115%
- cell viability [22]: 83.9%
- cell viability [23]: 124%
- cell viability [24]: 136%
- cell viability [25]: 124%
- cell viability [26]: 122%
- cell viability [27]: 110%
- cell viability [28]: 128%
- cell viability [29]: 130%
- cell viability [30]: 120%
- cell viability [31]: 110%
- cell viability [32]: 82.3%
- cell viability [33]: 69.6%

Structure (SMILES): CCc1ccc(OCc2ccccc2C(=O)Nc2ccc3nc(C)cc(N)c3c2)cc1
- cell viability [1]: 92.1%
- cell viability [2]: 107%
- cell viability [3]: 105%
- cell viability [4]: 117%
- cell viability [5]: 115%
- cell viability [6]: 118%
- cell viability [7]: 127%
- cell viability [8]: 114%
- cell viability [9]: 15.3%
- cell viability [10]: 6.13%
- cell viability [11]: 4.55%
- cell viability [12]: 103%
- cell viability [13]: 108%
- cell viability [14]: 105%
- cell viability [15]: 108%
- cell viability [16]: 110%
- cell viability [17]: 116%
- cell viability [18]: 112%
- cell viability [19]: 113%
- cell viability [20]: 112%
- cell viability [21]: 7.05%
- cell viability [22]: 4.22%
- cell viability [23]: 109%
- cell viability [24]: 108%
- cell viability [25]: 116%
- cell viability [26]: 117%
- cell viability [27]: 116%
- cell viability [28]: 130%
- cell viability [29]: 124%
- cell viability [30]: 115%
- cell viability [31]: 111%
- cell viability [32]: 6.5%
- cell viability [33]: 4.65%

Structure (SMILES): CCNC(=O)Nc1ccc(Oc2ncnc(N)c2/C=N/OC)cc1Cl
- cell viability [1]: 104%
- cell viability [2]: 113%
- cell viability [3]: 111%
- cell viability [4]: 115%
- cell viability [5]: 109%
- cell viability [6]: 113%
- cell viability [7]: 133%
- cell viability [8]: 125%
- cell viability [9]: 127%
- cell viability [10]: 105%
- cell viability [11]: 111%
- cell viability [12]: 112%
- cell viability [13]: 118%
- cell viability [14]: 114%
- cell viability [15]: 115%
- cell viability [16]: 119%
- cell viability [17]: 113%
- cell viability [18]: 113%
- cell viability [19]: 121%
- cell viability [20]: 118%
- cell viability [21]: 124%
- cell viability [22]: 122%
- cell viability [23]: 90.2%
- cell viability [24]: 113%
- cell viability [25]: 98.1%
- cell viability [26]: 101%
- cell viability [27]: 114%
- cell viability [28]: 109%
- cell viability [29]: 117%
- cell viability [30]: 112%
- cell viability [31]: 103%
- cell viability [32]: 109%
- cell viability [33]: 125%

Structure (SMILES): O=C(O)CCCCCC(=O)NN=C1CCCC1
- cell viability [1]: 99.6%
- cell viability [2]: 96%
- cell viability [3]: 116%
- cell viability [4]: 122%
- cell viability [5]: 107%
- cell viability [6]: 120%
- cell viability [7]: 126%
- cell viability [8]: 132%
- cell viability [9]: 122%
- cell viability [10]: 130%
- cell viability [11]: 133%
- cell viability [12]: 105%
- cell viability [13]: 111%
- cell viability [14]: 111%
- cell viability [15]: 112%
- cell viability [16]: 102%
- cell viability [17]: 100%
- cell viability [18]: 112%
- cell viability [19]: 103%
- cell viability [20]: 116%
- cell viability [21]: 123%
- cell viability [22]: 129%
- cell viability [23]: 91.2%
- cell viability [24]: 92.8%
- cell viability [25]: 97.9%
- cell viability [26]: 110%
- cell viability [27]: 105%
- cell viability [28]: 115%
- cell viability [29]: 96.6%
- cell viability [30]: 109%
- cell viability [31]: 118%
- cell viability [32]: 121%
- cell viability [33]: 103%
